Data from ChEMBL document CHEMBL1201862, “PubChem BioAssay data set” (2004).
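Following 48 hours of exposure in 96-well plates, responses at five concentrations were used to interpolate endpoints linearly. GI50 marks 50% less growth.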 Activity calls are given as the source filed them. Cut-off read from the data, not from the text of the source: active = GI50 up to about 1.1 µM and inactive = higher.

Assays:
Assay in all cases: NCI tumour cell line growth inhibition, 48 h
DU-145 = tested on: DU-145
NCI/ADR-RES = tested on: NCI/ADR-RES
T47D = tested on: T47D
Hs-578T = tested on: Hs-578T
HCT-15 = tested on: HCT-15
SK-MEL-2 = tested on: SK-MEL-2
SNB-19 = tested on: SNB-19
SF-295 = tested on: SF-295
SR = tested on: SR
RPMI-8226 = tested on: RPMI-8226
786-0 = tested on: 786-0
TK-10 = tested on: TK-10
MDA-N = tested on: MDA-N
OVCAR-8 = tested on: OVCAR-8
RXF 393 = tested on: RXF 393
HT-29 = tested on: HT-29
K562 = tested on: K562
OVCAR-5 = tested on: OVCAR-5
COLO 205 = tested on: COLO 205
PC-3 = tested on: PC-3
NCI-H522 = tested on: NCI-H522
NCI-H23 = tested on: NCI-H23
BT-549 = tested on: BT-549
ACHN = tested on: ACHN
IGROV-1 = tested on: IGROV-1
SF-539 = tested on: SF-539
SW-620 = tested on: SW-620
SK-OV-3 = tested on: SK-OV-3
SK-MEL-5 = tested on: SK-MEL-5
HCT-116 = tested on: HCT-116
MOLT-4 = tested on: MOLT-4
NCI-H460 = tested on: NCI-H460
LOX IMVI = tested on: LOX IMVI
UO-31 = tested on: UO-31
HOP-62 = tested on: HOP-62
UACC-257 = tested on: UACC-257
MCF7 = tested on: MCF7
MDA-MB-435 = tested on: MDA-MB-435
SN12C = tested on: SN12C
CAKI-1 = tested on: CAKI-1
OVCAR-3 = tested on: OVCAR-3
HCC 2998 = tested on: HCC 2998
UACC-62 = tested on: UACC-62
EKVX = tested on: EKVX
CCRF-CEM = tested on: CCRF-CEM
SNB-75 = tested on: SNB-75
A549 = tested on: A549
KM12 = tested on: KM12
SF-268 = tested on: SF-268
Malme-3M = tested on: Malme-3M
M14 = tested on: M14
OVCAR-4 = tested on: OVCAR-4
SK-MEL-28 = tested on: SK-MEL-28
MDA-MB-231 = tested on: MDA-MB-231
U-251 = tested on: U-251
A498 = tested on: A498
HOP-92 = tested on: HOP-92
NCI-H226 = tested on: NCI-H226
HL-60 = tested on: HL-60

O=C1/C(=C\c2cccc(Oc3ccccc3)c2)S(=O)(=O)C(c2ccccc2)N1c1cccc(Cl)c1 (stereo unspecified)
GI50 (DU-145): 65.5 µM (inactive) | GI50 (NCI/ADR-RES): 35.4 µM (inactive) | GI50 (T47D): 46.8 µM (inactive) | GI50 (Hs-578T): 65.5 µM (inactive) | GI50 (HCT-15): 40.6 µM | GI50 (SK-MEL-2): > 100 µM (inactive) | GI50 (SNB-19): 68.9 µM (inactive) | GI50 (SF-295): 39.4 µM (inactive) | GI50 (SR): 20.9 µM (inactive) | GI50 (RPMI-8226): 25.9 µM (inactive) | GI50 (786-0): 46.5 µM (inactive) | GI50 (TK-10): > 100 µM (inactive) | GI50 (MDA-N): 25.9 µM (inactive) | GI50 (OVCAR-8): 25.2 µM (inactive) | GI50 (RXF 393): 36.3 µM (inactive) | GI50 (HT-29): 30.1 µM (inactive) | GI50 (K562): 26.4 µM (inactive) | GI50 (OVCAR-5): > 100 µM (inactive) | GI50 (COLO 205): 69.8 µM (inactive) | GI50 (PC-3): > 100 µM (inactive) | GI50 (NCI-H522): 26.8 µM (inactive) | GI50 (NCI-H23): 51.4 µM (inactive) | GI50 (BT-549): 45.8 µM (inactive) | GI50 (ACHN): 71.8 µM (inactive) | GI50 (IGROV-1): 38.9 µM (inactive) | GI50 (SF-539): 36.1 µM (inactive) | GI50 (SW-620): 25.1 µM (inactive) | GI50 (SK-OV-3): 66.4 µM (inactive) | GI50 (SK-MEL-5): 43.9 µM (inactive) | GI50 (HCT-116): 29.4 µM (inactive) | GI50 (MOLT-4): 30.1 µM (inactive) | GI50 (NCI-H460): 88.3 µM (inactive) | GI50 (LOX IMVI): 19 µM (inactive) | GI50 (UO-31): 34.7 µM (inactive) | GI50 (HOP-62): 98.2 µM (inactive) | GI50 (UACC-257): 74.6 µM (inactive) | GI50 (MCF7): 30.2 µM (inactive) | GI50 (MDA-MB-435): 38.5 µM (inactive) | GI50 (SN12C): 54.8 µM (inactive) | GI50 (CAKI-1): 78.2 µM (inactive) | GI50 (OVCAR-3): 36.2 µM (inactive) | GI50 (HCC 2998): > 100 µM (inactive) | GI50 (UACC-62): 57.7 µM (inactive) | GI50 (EKVX): 51.1 µM (inactive) | GI50 (CCRF-CEM): 11.1 µM (inactive) | GI50 (SNB-75): > 100 µM (inactive) | GI50 (A549): > 100 µM (inactive) | GI50 (KM12): 58.1 µM (inactive) | GI50 (SF-268): 39.2 µM (inactive) | GI50 (Malme-3M): > 100 µM (inactive) | GI50 (M14): 40.8 µM (inactive) | GI50 (OVCAR-4): 98.9 µM (inactive) | GI50 (SK-MEL-28): > 100 µM (inactive) | GI50 (MDA-MB-231): > 100 µM (inactive) | GI50 (U-251): 50.4 µM (inactive) | GI50 (A498): > 100 µM (inactive) | GI50 (HOP-92): 27.7 µM (inactive)

CCCC(=O)OCC1OC(n2cc(F)c(=O)[nH]c2=O)CC1OC(=O)CCC (stereo unspecified)
GI50 (DU-145): 0.156 µM (active) | GI50 (NCI/ADR-RES): 1.55 µM (inactive) | GI50 (T47D): > 6.15 µM (inactive) | GI50 (Hs-578T): 2.32 µM (inactive) | GI50 (HCT-15): > 4.41 µM | GI50 (SK-MEL-2): > 10 µM (inactive) | GI50 (SF-295): 0.127 µM (active) | GI50 (SR): 0.034 µM (active) | GI50 (RPMI-8226): 0.973 µM (active) | GI50 (786-0): 0.434 µM (active) | GI50 (TK-10): 2.25 µM (inactive) | GI50 (MDA-N): 1.25 µM (inactive) | GI50 (OVCAR-8): 0.203 µM (active) | GI50 (RXF 393): > 9.2 µM (inactive) | GI50 (K562): 1.16 µM (inactive) | GI50 (OVCAR-5): > 10 µM (inactive) | GI50 (COLO 205): > 6.5 µM (inactive) | GI50 (PC-3): 1.55 µM (inactive) | GI50 (NCI-H522): 5.22 µM (inactive) | GI50 (NCI-H23): 0.278 µM (active) | GI50 (BT-549): 0.376 µM (active) | GI50 (ACHN): 0.0441 µM (active) | GI50 (IGROV-1): > 10 µM (inactive) | GI50 (SF-539): 0.00511 µM (active) | GI50 (SW-620): > 10 µM (inactive) | GI50 (SK-OV-3): > 2.93 µM (inactive) | GI50 (SK-MEL-5): 0.279 µM (active) | GI50 (HCT-116): 0.524 µM (active) | GI50 (MOLT-4): 4.63 µM (inactive) | GI50 (NCI-H226): 5.53 µM (inactive) | GI50 (NCI-H460): 0.119 µM (active) | GI50 (LOX IMVI): 0.0236 µM (active) | GI50 (UO-31): 0.13 µM (active) | GI50 (HOP-62): 0.0684 µM (active) | GI50 (UACC-257): 3.79 µM (inactive) | GI50 (MCF7): 0.0169 µM (active) | GI50 (MDA-MB-435): 3.95 µM (inactive) | GI50 (SN12C): 0.346 µM (active) | GI50 (CAKI-1): 0.183 µM (active) | GI50 (HL-60): 0.247 µM (active) | GI50 (OVCAR-3): 1.67 µM (inactive) | GI50 (HCC 2998): 0.0113 µM (active) | GI50 (UACC-62): 0.177 µM (active) | GI50 (EKVX): > 10 µM (inactive) | GI50 (CCRF-CEM): 0.0295 µM (active) | GI50 (A549): 0.0578 µM (active) | GI50 (KM12): > 5.02 µM (inactive) | GI50 (SF-268): 0.0368 µM (active) | GI50 (Malme-3M): > 6.43 µM (inactive) | GI50 (M14): 0.312 µM (active) | GI50 (OVCAR-4): > 10 µM (inactive) | GI50 (SK-MEL-28): > 6.68 µM (inactive) | GI50 (MDA-MB-231): > 10 µM (inactive) | GI50 (U-251): 3.26 µM (inactive) | GI50 (A498): 0.484 µM (active) | GI50 (HOP-92): 0.509 µM (active)

COC(=O)C1(C)CCC(c2ccc(C)cc2)=C(CC(=O)O)C1 (stereo unspecified)
GI50 (DU-145): > 100 µM (inactive) | GI50 (NCI/ADR-RES): > 100 µM (inactive) | GI50 (T47D): > 100 µM (inactive) | GI50 (Hs-578T): > 100 µM (inactive) | GI50 (HCT-15): > 100 µM | GI50 (SK-MEL-2): > 100 µM (inactive) | GI50 (SNB-19): > 100 µM (inactive) | GI50 (SF-295): > 100 µM (inactive) | GI50 (SR): > 100 µM (inactive) | GI50 (RPMI-8226): > 100 µM (inactive) | GI50 (786-0): > 100 µM (inactive) | GI50 (TK-10): > 100 µM (inactive) | GI50 (MDA-N): > 100 µM (inactive) | GI50 (OVCAR-8): > 100 µM (inactive) | GI50 (RXF 393): > 100 µM (inactive) | GI50 (HT-29): > 100 µM (inactive) | GI50 (K562): > 100 µM (inactive) | GI50 (OVCAR-5): > 100 µM (inactive) | GI50 (COLO 205): > 100 µM (inactive) | GI50 (PC-3): > 100 µM (inactive) | GI50 (NCI-H522): > 100 µM (inactive) | GI50 (NCI-H23): > 100 µM (inactive) | GI50 (BT-549): > 100 µM (inactive) | GI50 (ACHN): > 100 µM (inactive) | GI50 (IGROV-1): > 100 µM (inactive) | GI50 (SF-539): > 100 µM (inactive) | GI50 (SW-620): > 100 µM (inactive) | GI50 (SK-OV-3): > 100 µM (inactive) | GI50 (SK-MEL-5): > 100 µM (inactive) | GI50 (HCT-116): > 100 µM (inactive) | GI50 (MOLT-4): > 100 µM (inactive) | GI50 (NCI-H460): > 100 µM (inactive) | GI50 (LOX IMVI): > 100 µM (inactive) | GI50 (HOP-62): > 100 µM (inactive) | GI50 (UACC-257): > 100 µM (inactive) | GI50 (MCF7): > 100 µM (inactive) | GI50 (MDA-MB-435): > 100 µM (inactive) | GI50 (SN12C): > 100 µM (inactive) | GI50 (HL-60): > 100 µM (inactive) | GI50 (OVCAR-3): > 100 µM (inactive) | GI50 (UACC-62): > 100 µM (inactive) | GI50 (EKVX): > 100 µM (inactive) | GI50 (SNB-75): > 100 µM (inactive) | GI50 (A549): > 100 µM (inactive) | GI50 (SF-268): > 100 µM (inactive) | GI50 (Malme-3M): > 100 µM (inactive) | GI50 (M14): > 100 µM (inactive) | GI50 (OVCAR-4): > 100 µM (inactive) | GI50 (SK-MEL-28): > 100 µM (inactive) | GI50 (MDA-MB-231): > 100 µM (inactive) | GI50 (U-251): > 100 µM (inactive) | GI50 (A498): > 100 µM (inactive) | GI50 (HOP-92): > 100 µM (inactive)
